This assay addresses Glutathione S-transferase omega-1 (Homo sapiens) (UniProt P78417). The assay is described as follows: GSTO1 inhibitor potency, recombinant enzyme, late-stage follow-up, biochemical, SE-Rh probe, in-gel fluorescence, powder samples (AID 463081). The note with it: recombinant GSTO1, SE-Rh probe labeling.

The structures appear in SMILES notation.

What is called IC50 is the concentration needed to halve the response being measured.

Sequence of Glutathione S-transferase omega-1 (Homo sapiens) (P78417 whole entry, looked up): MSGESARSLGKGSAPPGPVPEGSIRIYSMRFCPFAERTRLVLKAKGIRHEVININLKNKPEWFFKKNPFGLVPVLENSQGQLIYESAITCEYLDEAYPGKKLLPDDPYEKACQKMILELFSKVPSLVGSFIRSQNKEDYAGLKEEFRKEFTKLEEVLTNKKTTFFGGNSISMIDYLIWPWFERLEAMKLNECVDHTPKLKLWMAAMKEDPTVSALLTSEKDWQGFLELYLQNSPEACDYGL

For the compound `COc1ccc(C(C(=O)NC2CCCCC2)N(C(=O)CCl)c2ccc(Cl)cc2)cc1` (stereo unspecified), the IC50 is 0.022 µM.

Values taken from PubChem BioAssay AID463081 (The Scripps Research Institute Molecular Screening Center, 2010).
